# Measurements: US12410163B2, “Compounds as GLP-IR agonists” (Terns Pharmaceuticals, Inc., priority 2022, dated 2025)
# Assay: Passive permeability and efflux ratio (Caco-2)
# Type: in vitro ADME
# Details: human; for efflux ratio at 120 min, 5 μM: pH 7.4, Caco-2, efflux ratio = Papp (B-to-A)/Papp (A-to-B), read-out: ER; for Papp A→B at 120 min, 5 μM: Caco-2, 5 μM, pH 7.4, 120 minutes
# Protocol: Caco-2 cells (clone C2BBe1) are obtained, e.g., from American Type Culture Collection (Manassas, VA). Cell monolayers are grown to confluence on collagen-coated, microporous membranes in 12-well assay plates. The permeability assay buffer is Hanks' balanced salt solution containing 10 mM HEPES and 15 mM glucose at a pH of 7.4. The buffer in the receiver chamber also contains 1% bovine serum albumin. The dosing solution concentration is 5 μM of test article in the assay buffer. Cell monolayers are dosed on the apical side (A-to-B) or basolateral side (B-to-A) and incubated at 37° C. with 5% CO2 in a humidified incubator. Samples are taken from the donor and receiver chambers at 120 minutes. Each determination is performed in duplicate. The flux of lucifer yellow is also measured post-experimentally for each monolayer to ensure no damage is inflicted to the cell monolayers during the flux period. All samples are assayed by LC-MS/MS using electrospray ionization. The apparent permeability (Papp) and percent recovery were calculated as follows: Papp=(dCr/dt)×Vr/(A×CA) (1) Percent Recovery=100×((Vr×Cr^final)+(Vd×Cd^final))/(Vd×CN) (2), where, dCr/dt is the slope of the cumulative receiver concentration versus time in μM s^−1; Vr is the volume of the receiver compartment in cm^3; Vd is the volume of the donor compartment in cm^3; A is the area of the insert (1.13 cm^2 for 12-well); CA is the average of the nominal dosing concentration and the measured 120-minute donor concentration in μM; CN is the nominal concentration of the dosing solution in μM; Cr^final is the cumulative receiver concentration in μM at the end of the incubation period; Cd^final is the concentration of the donor in μM at the end of the incubation period. Efflux ratio (ER) is defined as Papp (B-to-A)/Papp (A-to-B). Rat Pharmacokinetics
# Caco-2 cells (clone C2BBe1) were obtained from American Type Culture Collection (Manassas, VA). Cell monolayers were grown to confluence on collagen-coated, microporous membranes in 12-well assay plates. Details of the plates and their certification are shown below. The permeability assay buffer was Hanks' balanced salt solution containing 10 mM HEPES and 15 mM glucose at a pH of 7.4. The buffer in the receiver chamber also contained 1% bovine serum albumin. The dosing solution concentration was 5 μM of test article in the assay buffer. Cell monolayers were dosed on the apical side (A-to-B) or basolateral side (B-to-A) and incubated at 37° C. with 5% CO2 in a humidified incubator. Samples were taken from the donor and receiver chambers at 120 minutes. Each determination was performed in duplicate. The flux of lucifer yellow was also measured post-experimentally for each monolayer to ensure no damage was inflicted to the cell monolayers during the flux period. All samples were assayed by LC-MS/MS using electrospray ionization. The apparent permeability (Papp) and percent recovery were calculated as follows: Papp=(dCr/dt)×Vr/(A×CA) (1) Percent Recovery=100×((Vr×Cr^final)+(Vd×Cd^final))/(Vd×CN) (2), where, dCr/dt is the slope of the cumulative receiver concentration versus time in μM s^−1; Vr is the volume of the receiver compartment in cm^3; Vd is the volume of the donor compartment in cm^3; A is the area of the insert (1.13 cm^2 for 12-well); CA is the average of the nominal dosing concentration and the measured 120-minute donor concentration in μM; CN is the nominal concentration of the dosing solution in μM; Cr^final is the cumulative receiver concentration in μM at the end of the incubation period; Cd^final is the concentration of the donor in μM at the end of the incubation period. Efflux ratio (ER) is defined as Papp (B-to-A)/Papp (A-to-B).
SMILES,"efflux ratio at 120 min, 5 μM","Papp A→B at 120 min, 5 μM [×10⁻⁶ cm/s]"
"N#Cc1ccc(COc2cccc(N3CCN(Cc4nc5ccc(C(=O)O)cc5n4Cc4cncs4)[C@@H]4C[C@@H]43)n2)c(F)c1 (single isomer, unassigned) [Compound 1, 2-((5-(6-((4-cyano-2-fluorobenzyl)oxy)pyridin-2-yl)-2,5-diazabicyclo[4.1.0]heptan-2-yl)methyl)-1-(thiazol-5-ylmethyl)-1H-benzo[d]imidazole-6-carboxylic Acid]",2.51,15
"N#Cc1ccc(COc2cccc([C@@H]3CCN(Cc4nc5ccc(C(=O)O)cc5n4Cc4cncs4)[C@@H]4C[C@@H]43)n2)c(F)c1 (single isomer, unassigned) [Compound 5, 2-((5-(6-((4-Cyano-2-fluorobenzyl)oxy)pyridin-2-yl)-2-azabicyclo[4.1.0]heptan-2-yl)methyl)-1-(thiazol-5-ylmethyl)-1H-benzo[d]imidazole-6-carboxylic Acid]",1.71,27.9
CC1(c2ccc(C#N)cc2F)Oc2cccc(C3CCN(Cc4nc5ccc(C(=O)O)cc5n4Cc4cncs4)CC3)c2O1 (centres unmarked) [Compound 18],1.31,16.8
"CC1(c2ccc(C#N)cc2F)Oc2cccc(N3CCN(Cc4nc5ccc(C(=O)O)cc5n4CC4(C#N)CC4)C4CC43)c2O1 (centres unmarked) [Compound 40, 2-((5-(2-(4-Cyano-2-fluorophenyl)-2-methylbenzo[d][1,3]dioxol-4-yl)-2,5-diazabicyclo[4.1.0]heptan-2-yl)methyl)-1-((1-cyanocyclopropyl)methyl)-1H-benzo[d]imidazole-6-carboxylic Acid]",2.27,17.5
